Assay results published in patent publication US20080221086A1, “Novel Inhibitors of Glutaminyl Cyclase” (PROBIODRUG AG, priority 2006, published 2008).
Read-outs that look alike come from different tables or passages of the source.

Assays:
hQC = hQC (Homo sapiens, UniProt Q16769); test: Fluorometric assay of glutaminyl cyclase (QC) inhibition, H-Gln-βNA or H-Gln-AMC substrate; format: biochemical
In short: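 Fluorometric coupled assays at 30° C in Tris/HCl pH 8.0 with EDTA and pyroglutamyl aminopeptidase used either 0.2 mM H-Gln-βNA (320/410 nm) or H-Gln-AMC (380/460 nm), started by QC. Screening used 4 mM inhibitor at substrate 1 KM. Ki came from fitting progress curves to competitive inhibition.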

[1] = compound from preparative synthesis, purified by chromatography, fluorescent assay, read-out: IC50 hQC

hQC, sequence (Q16769 29-361): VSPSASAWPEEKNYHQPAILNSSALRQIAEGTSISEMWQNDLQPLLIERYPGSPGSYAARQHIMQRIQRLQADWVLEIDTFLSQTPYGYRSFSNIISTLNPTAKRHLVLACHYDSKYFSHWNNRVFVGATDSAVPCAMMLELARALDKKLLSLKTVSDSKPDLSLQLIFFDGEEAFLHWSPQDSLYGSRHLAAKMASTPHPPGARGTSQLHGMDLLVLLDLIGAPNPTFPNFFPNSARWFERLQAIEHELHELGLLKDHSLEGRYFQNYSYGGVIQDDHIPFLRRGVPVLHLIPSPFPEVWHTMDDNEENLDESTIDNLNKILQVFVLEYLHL

IC50 (hQC; [1])	IC50 (hQC; read-out: IC50)	melting point	SMILES
22 nM	4 nM	244 °C	O=C1N/C(=N/Cc2ccccc2)C(c2ccc(Br)cc2)N1c1ccc2[nH]cnc2c1 (stereo not drawn) [Compound 216, 1-(1H-Benzoimidazol-5-yl)-4-benzylimino-5-(4-bromo-phenyl)-imidazolidin-2-one]
34.5 nM	4 nM	210 °C	O=C1N/C(=N\C2CCCC2)C(c2ccc3[nH]ccc3c2)N1c1ccc2[nH]cnc2c1 (stereo not drawn) [Compound 226, 1-(1H-Benzoimidazol-5-yl)-4-(cyclopentylimino)-5-(1H-indol-5-yl)-imidazolidin-2-one]
